This is an account of results in patent US10251927B2, “Process to enhance the bioactivity of Ashwagandha extracts” (priority 2015, dated 2019).

Broadly, the inhibition is the share of the control response that was lost under treatment.

“And” between values parts separate entries of the source, which are not always exact repeats. Equal values may be shown once. Read-outs that look alike come from different tables or passages of the source.

The subject of assay [1] is streptozotocin induced diabetic rats. The assay is described as follows: Antidiabetic activity in streptozotocin induced diabetic rats (Example 32). The settings on record: STZ diabetic rats. Format: in vivo, rat. How it is done: Male/Female albino wistar rats were maintained as per standard guidelines: housed in polypropylene cages, under 12 hour artificial light and dark cycles at a temperature of 24±2° C., given a standard pellet diet and water ad libitum. The animals were acclimatized to the animal house conditions for a week before beginning the experiment. Diabetes was induced by injecting streptozotocin 35mg/kg dissolved in 0.1 M citrate buffer of pH 4.5, intra-peritoneally. […] Animals with FBG above 200 mg/dl were considered diabetic. The diabetic animals were randomly divided into 13 groups of six animals each. One normal group was also included comprising of six normal rats.

The test system is the same in assay [2]. In words: Antidiabetic activity of coated extracts in different doses in streptozotocin induced diabetic rats (Example 33). Particulars: STZ diabetic rats. Type of assay: in vivo, rat. As to the method:
Different Ashwagandha extracts with coating in different dosages was evaluated for antidiabetic activity in experimental rats. Male/Female albino wistar rats were maintained as per standard guidelines: housed in polypropylene cages, under 12 hour artificial light and dark cycles at a temperature of 24±2° C., given a standard pellet diet and water ad libitum. The animals were acclimatized to the animal house conditions for a week before beginning the experiment. Diabetes was induced by injecting streptozotocin 35 mg/kg dissolved in 0.1 M citrate buffer of pH 4.5, intra-peritoneally. Five days after induction of diabetes (day 1 of the study), animals were fasted for 12 hours and the fasting blood glucose level (FBG) was estimated for diagnosing diabetic rats. Animals with FBG above 200 mg/dl were considered diabetic. The diabetic animals were randomly divided into 13 groups of 4 animals each.
Fasting blood glucose level and body weight of rats was measured initially and then at Day 7, Day 14, Day 21 and Day 28 of the study.

The test system of the next assay is wistar rats. The assay is described as follows: Carrageenan induced paw edema model (Example 16). Format: in vivo. Particulars: Rattus norvegicus, po, 10 mg/kg p.o. single dose, read-out: Percentage inhibition (%) of inflammation. As to the method:
Fourty five wistar rats were divided into nine groups (n=5). Following treatment was given to the rats as single dose: […] The percentage inhibition of edema was calculated for each group with respect to the vehicle received control group of animals.
Background: In the carrageenan paw model, swelling and tenderness develop within hours.

In another assay the test system is Albino Wistar rats. In words: Anoxia stress tolerance test (Example 16). Format: in vivo, rat. Particulars: 2 mg/kg p.o. As to the method: Albino Wistar rats of either sex weighing 150-220 g were selected and divided into 11 groups of six each and following treatment was given after one week of acclimatization:
Animals were treated as shown above for the 3 weeks. At the end of 1st, 2nd and 3rd week i.e. on 7th, 14th and 21st day 1 h after the treatment stress was induced by placing each animal individually in the hermetic vessel of 1 L capacity to record anoxia tolerance time. The time duration of entry of the animal into the hermetic vessel and the appearance of the first convulsion was taken as time of anoxia.

Assay [3] concerns rats. In words: Forced swim test after reserpine, normal (film), enteric and delayed release coating (Example 30). Format: in vivo, rat. The settings on record: Reserpine 6 mg/kg i.p.; 10 mg/kg p.o.; test after 2 hour; vehicle 250, normal control 120. How it is done: 60 rats were divided into 15 groups comprising of 4 rats in each group. The animals were trained for swimming test (15 minutes) as pre-test session and then fasted overnight. To the fasted animals, reserpine (6 mg/kg) was injected i.p. to depress the animals. Immediately after reserpine injection, the test samples with normal (Hydroxy Propyl Cellulose; HPC), enteric (Eudragit) and delayed release (High percentage of Eudragit) coating/standard were fed orally as designated doses. After 2 hour of test sample/standard, the rats were tested using forced swim test and duration of immobility in the 5 minutes test session was recorded. In this test more immobility time indicate that animal is more depressed or stressed.

The test system of assay [4] is rats. In words: Forced swim test after reserpine, different percentage of enteric coating (Example 31). Format: in vivo, rat. The settings on record: Reserpine 6 mg/kg i.p.; 10 mg/kg p.o.; test after 2 hour; vehicle 250, normal control 120. As to the method: Efficacy Study of Different Ashwagandha Extracts Granules with Different Percentage of Enteric Coating. 44 rats were divided into 11 groups comprising of 4 rats in each group. The animals were trained for swimming test (15 minutes) as pre-test session and then fasted overnight. To the fasted animals, reserpine (6 mg/kg) was injected i.p. to depress the animals. Immediately after the reserpine injection, the test samples (ashwagandha root powder) with different percentage of enteric coating/standard were fed orally as designated dose. After 2 hour of test sample/standard, the rats were tested using forced swim test and duration of immobility in the 5 minutes test session was recorded. In this test more immobility time indicate that animal is more depressed or stressed.
The test was repeated with different percentage of coated ashwagandha extract containing 3.5% withanolide glycosides and different percentage of coated ashwagandha extract containing 35% and 80% withanolide glycosides.

The test system of assay [5] is rats. The assay is described as follows: Forced swim test after reserpine, powder/extracts treated at different pH (Example 29). The settings on record: Reserpine 6 mg/kg i.p.; 10 mg/kg p.o.; vehicle 250, normal control 120. Type of assay: in vivo, rat. How it is done: Ashwagandha powder/extract was added to different buffer(pH 1,2,3,5,7 and 7.4) in 1:20 ratio of Ashwagandh powder/extract: buffer. The extract -buffer solution was kept in a waterbath at 37° C. for 2 hrs. The solution was neutralised by adding base or acid solution. The neutralised solution was concentrated and dried.
The animals were trained for swimming test (15 minutes) as pre-test session and then fasted overnight. To the fasted animals, reserpine (6 mg/kg) was injected i.p. to depress the animals. After 1 hour of reserpine injection, the test samples treated at different pH/standard were fed orally as designated dose. After 1 hour of test sample/standard, the rats were tested using forced swim test and duration of immobility in the 5 minutes test session was recorded. In this test more immobility time indicate that animal is more depressed or stressed.

The test system of assay [6] is rats. The assay is described as follows: Forced swim test after reserpine injection, different Ashwagandha extracts (Example 13). Particulars: Reserpine 6 mg/kg i.p.; 10 mg/kg p.o.; vehicle 210, normal control 120. Type of assay: in vivo, rat. How it is done: 44 rats were divided into eleven groups having 4 rats in each group. The animals were trained for swimming test (15 minutes) as pre-test session and then fasted overnight. To the fasted animals, reserpine (6 mg/kg) was injected i.p. to depress the animals. After 1 hour of reserpine injection, the test samples/standard was fed orally as designated dose.

Assay [7] concerns rats. In words: Forced swim test after reserpine injection, enteric and nonenteric coated extracts (Example 14). Format: in vivo, rat. The settings on record: Reserpine 6 mg/kg i.p.; 10 mg/kg p.o.; vehicle 250, normal control 120. As to the method: 92 rats were divided into twenty three groups. Each group had 4 rats. The animals were trained for swimming test (15 minutes) as pre-test session and then fasted overnight. To the fasted animals, reserpine (6 mg/kg) was injected i.p. to depress the animals. After 1 hour of reserpine injection, the test samples/standard was fed orally as designated dose. After 1 hour of test sample/standard, the rats were tested using forced swim test and duration of immobility in the 5 minutes test session was recorded.

The mark [8] stands for this setting: before treatment, group 0.5 mg/kg.

`COc1ccc(Cl)cc1C(=O)NCCc1ccc(S(=O)(=O)NC(=O)NC2CCCCC2)cc1` [Glibenclamide]: the “Fasting blood glucose (FBG) level after 28 days” value in assay [1] (0.5 mg/kg for 28 days) was 124 mg/dL; in [2] (0.5 mg/kg for 28 days), 125 mg/dL. For the same compound, the “Fasting Blood Glucose level” value in assay [1] (Day 1 (Initial), standard drug) was 422 mg/dL; in [1] (Day 7, standard drug) it was 380 mg/dL; in [1] (Day 14, standard drug), 245 mg/dL; in assay [1] (Day 21, standard drug), 196 mg/dL; in [1] (Day 28, standard drug), 124 mg/dL; in assay [2] (Day 1 (Initial), standard drug), 423 mg/dL. Moreover, the “Fasting Blood Glucose level” value in assay [2] (Day 7, standard drug) was 381 mg/dL; in assay [2] (Day 14, standard drug), 246 mg/dL; in assay [2] (Day 21, standard drug), 197 mg/dL; in [2] (Day 28, standard drug), 125 mg/dL. Further, the “Fasting blood glucose (FBG) level, initial” value in assay [1] (setting [8]) was determined as 422 mg/dL; in assay [2] (setting [8]), 423 mg/dL.
On to `COc1ccc2c(c1)c(CC(=O)O)c(C)n2C(=O)c1ccc(Cl)cc1` [Indomethacin], for which the inhibition at 10 mg/kg in the assay on wistar rats (0.5 hr) amounted to 28%; in the assay on wistar rats (1 hr) it was 65%; in the assay with wistar rats (2 hr), 80%; with wistar rats (3 hr), 86%.
For the compound `CN1C(=O)CN=C(c2ccccc2)c2cc(Cl)ccc21` [Diazepam], the “Duration of anoxia stress tolerance” value with Albino Wistar rats (First week) came out at 34.50 min; with Albino Wistar rats (Second week) it was 37.33 min; in the assay with Albino Wistar rats (Third week), 37.00 min.
As to `CNCCC(Oc1ccc(C(F)(F)F)cc1)c1ccccc1` (centres unmarked) [Fluoxetine], the “Immobility time” value with rats [3] was 120 s; in the assay on rats [4], 120 s; with rats [5], 122 s and 120 s; in the assay on rats [6], 122 s; with rats [7] it was 122 s.
